{"source": "patent US10807986B2", "about": "“Fused pyrimidine compound or salt thereof” (TAIHO PHARMACEUTICAL CO., LTD., priority 2016, dated 2020)", "experiment": "Evaluation of stability in liver microsome", "conditions": "mouse liver microsome 0.25 mg/mL, test compound 1 μM, 37° C., 30 minutes", "data": [{"smiles": "COCc1ccc(NC(=O)c2c(-c3cnn(C)c3)n(C3(C)CC3)c3ncnc(N)c23)cc1", "note": "[Example 150, 4-amino-N-(4-(methoxymethyl)phenyl)-6-(1-methyl-1H-pyrazol-4-yl)-7-(1-methylcyclopropyl)-7H-pyrrolo[2,3-d]pyrimidine-5-carboxamide]", "values": [{"measurement": "Remaining (%)", "result": 78, "unit": "%"}]}, {"smiles": "COCc1ccc(NC(=O)c2c(-c3ccc(CO)cc3)n(C3(C)CC3)c3ncnc(N)c23)cc1", "note": "[Example 145, 4-amino-6-(4-(hydroxymethyl)phenyl)-N-(4-(methoxymethyl)phenyl)-7-(1-methylcyclopropyl)-7H-pyrrolo[2,3-d]pyrimidine-5-carboxamide]", "values": [{"measurement": "Remaining (%)", "result": 72, "unit": "%"}]}, {"smiles": "COCc1ccc(NC(=O)c2c(C#CC(O)C3CC3)n(C3(C)CC3)c3ncnc(N)c23)cc1", "note": "(stereo not drawn) [Example 104, 4-amino-6-(3-cyclopropyl-3-hydroxyprop-1-yn-1-yl)-N-(4-(methoxymethyl)phenyl)-7-(1-methylcyclopropyl)-7H-pyrrolo[2,3-d]pyrimidine-5-carboxamide]", "values": [{"measurement": "Remaining (%)", "result": 52, "unit": "%"}]}, {"smiles": "COCc1ccc(NC(=O)c2c(C#Cc3ccccn3)n(C3(C)CC3)c3ncnc(N)c23)cc1", "note": "[Example 172, 4-amino-N-[4-(methoxymethyl)phenyl]-7-(1-methylcyclopropyl)-6-(pyridin-2-ylethynyl)-7H-pyrrolo[2,3-d]pyrimidine-5-carboxamide]", "values": [{"measurement": "Remaining (%)", "result": 61, "unit": "%"}]}, {"smiles": "COCc1ccc(NC(=O)c2c(C#Cc3cncc(C#N)c3)n(C3(C)CC3)c3ncnc(N)c23)cc1", "note": "[Example 195, 4-amino-6-((5-cyanopyridin-3-yl)ethynyl)-N-(4-(methoxymethyl)phenyl)-7-(1-methylcyclopropyl)-7H-pyrrolo[2,3-d]pyrimidine-5-carboxamide]", "values": [{"measurement": "Remaining (%)", "result": 70, "unit": "%"}]}, {"smiles": "COCc1ccc(NC(=O)c2c(C#CCCN3CCOCC3)n(C3(C)CC3)c3ncnc(N)c23)cc1", "note": "[Example 187, 4-amino-N-(4-(methoxymethyl)phenyl)-7-(1-methylcyclopropyl)-6-(4-morpholinobut-1-yn-1-yl)-7H-pyrrolo [2,3-d]pyrimidine-5-carboxamide]", "values": [{"measurement": "Remaining (%)", "result": 68, "unit": "%"}]}, {"smiles": "COCc1ccc(NC(=O)c2c(OCC3CCOC3)n(C3(C)CC3)c3ncnc(N)c23)cc1", "note": "(stereo not drawn) [Example 101, 4-amino-N-(4-(methoxymethyl)phenyl)-7-(1-methylcyclopropyl)-6-((tetrahydrofuran-3-yl)methoxy)-7H-pyrrolo[2,3-d]pyrimidine-5-carboxamide]", "values": [{"measurement": "Remaining (%)", "result": 68, "unit": "%"}]}, {"smiles": "COCc1ccc(NC(=O)c2c(C#Cc3cncs3)n(C3(C)CC3)c3ncnc(N)c23)cc1", "note": "[Example 193, 4-amino-N-[4-(methoxymethyl)phenyl]-7-(1-methylcyclopropyl)-6-(thiazol-5-ylethynyl)-7H-pyrrolo[2,3-d]pyrimidine-5-carboxamide]", "values": [{"measurement": "Remaining (%)", "result": 51, "unit": "%"}]}, {"smiles": "CCn1nccc1C#Cc1c(C(=O)Nc2ccc(COC)cc2)c2c(N)ncnc2n1C1(C)CC1", "note": "[Example 114, 4-amino-6-((1-ethyl-1H-pyrazol-5-yl)ethynyl)-N-(4-(methoxymethyl)phenyl)-7-(1-methylcyclopropyl)-7H-pyrrolo[2,3-d]pyrimidine-5-carboxamide]", "values": [{"measurement": "Remaining (%)", "result": 55, "unit": "%"}]}, {"smiles": "COCCN(C)CC#Cc1c(C(=O)Nc2ccc(COC)cc2)c2c(N)ncnc2n1C1(C)CC1", "note": "[Example 197, 4-amino-6-(3-((2-methoxyethyl)(methyl)amino)prop-1-yn-1-yl)-N-(4-(methoxymethyl)phenyl)-7-(1-methylcyclopropyl)-7H-pyrrolo[2,3-d]pyrimidine-5-carboxamide]", "values": [{"measurement": "Remaining (%)", "result": 52, "unit": "%"}]}, {"smiles": "COCc1ccc(NC(=O)c2c(OCC3CCOCC3)n(C3(C)CC3)c3ncnc(N)c23)cc1", "note": "[Example 141, 4-amino-N-(4-(methoxymethyl)phenyl)-7-(1-methylcyclopropyl)-6-((tetrahydro-2H-pyran-4-yl)methoxy)-7H-pyrrolo[2,3-d]pyrimidine-5-carboxamide]", "values": [{"measurement": "Remaining (%)", "result": 68, "unit": "%"}]}, {"smiles": "COCc1ccc(NC(=O)c2c(C#Cc3cnc4ccoc4c3)n(C3(C)CC3)c3ncnc(N)c23)cc1", "note": "[Example 159, 4-amino-6-(furo[3,2-b]pyridin-6-ylethynyl)-N-(4-(methoxymethyl)phenyl)-7-(1-methylcyclopropyl)-7H-pyrrolo[2,3-d]pyrimidine-5-carboxamide]", "values": [{"measurement": "Remaining (%)", "result": 78, "unit": "%"}]}, {"smiles": "COCc1ccc(NC(=O)c2c(C#CCC3CCOCC3)n(C3(C)CC3)c3ncnc(N)c23)cc1", "note": "[Example 152, 4-amino-N-(4-(methoxymethyl)phenyl)-7-(1-methylcyclopropyl)-6-(3-(tetrahydro-2H-pyran-4-yl)prop-1-yn-1-yl)-7H-pyrrolo[2,3-d]pyrimidine-5-carboxamide]", "values": [{"measurement": "Remaining (%)", "result": 57, "unit": "%"}]}, {"smiles": "COCc1ccc(NC(=O)c2c(C)n(C(C)(C)C)c3ncnc(N)c23)cc1", "note": "[Example 60, 4-amino-7-(tert-butyl)-N-(4-(methoxymethyl)phenyl)-6-methyl-7H-pyrrolo[2,3-d]pyrimidine-5-carboxamide]", "values": [{"measurement": "Remaining (%)", "result": 81, "unit": "%"}]}, {"smiles": "COCc1ccc(NC(=O)c2c(C#CC(C)(C)N)n(C3(C)CC3)c3ncnc(N)c23)cc1", "note": "[Example 134, 4-amino-6-(3-amino-3-methylbut-1-yn-1-yl)-N-(4-(methoxymethyl)phenyl)-7-(1-methylcyclopropyl)-7H-pyrrolo[2,3-d]pyrimidine-5-carboxamide]", "values": [{"measurement": "Remaining (%)", "result": 79, "unit": "%"}]}, {"smiles": "COCc1ccc(NC(=O)c2c(-c3cn[nH]c3)n(C3(C)CC3)c3ncnc(N)c23)cc1", "note": "[Example 167, 4-amino-N-(4-(methoxymethyl)phenyl)-7-(1-methylcyclopropyl)-6-(1H-pyrazol-4-yl)-7H-pyrrolo[2,3-d]pyrimidine-5-carboxamide]", "values": [{"measurement": "Remaining (%)", "result": 80, "unit": "%"}]}, {"smiles": "COCc1ccc(NC(=O)c2c(F)n(C3(C)CC3)c3ncnc(N)c23)cc1", "note": "[Example 69, 4-amino-6-fluoro-N-(4-(methoxymethyl)phenyl)-7-(1-methylcyclopropyl)-7H-pyrrolo[2,3-d]pyrimidine-5-carboxamide]", "values": [{"measurement": "Remaining (%)", "result": 69, "unit": "%"}]}, {"smiles": "COCc1ccc(NC(=O)c2c(C#CCC3CCCCC3)n(C3(C)CC3)c3ncnc(N)c23)cc1", "note": "[Example 199, 4-amino-6-(3-cyclohexylprop-1-yn-1-yl)-N-(4-(methoxymethyl)phenyl)-7-(1-methylcyclopropyl)-7H-pyrrolo[2,3-d]pyrimidine-5-carboxamide]", "values": [{"measurement": "Remaining (%)", "result": 80, "unit": "%"}]}, {"smiles": "COCc1ccc(NC(=O)c2c(-c3ccc(O)cc3)n(C3(C)CC3)c3ncnc(N)c23)cc1", "note": "[Example 148, 4-amino-6-(4-hydroxyphenyl)-N-(4-(methoxymethyl)phenyl)-7-(1-methylcyclopropyl)-7H-pyrrolo[2,3-d]pyrimidine-5-carboxamide]", "values": [{"measurement": "Remaining (%)", "result": 61, "unit": "%"}]}, {"smiles": "CCC(O)CC#Cc1c(C(=O)Nc2ccc(COC)cc2)c2c(N)ncnc2n1C1(C)CC1", "note": "(stereo not drawn) [Example 157, 4-amino-6-(4-hydroxyhex-1-yn-1-yl)-N-(4-(methoxymethyl)phenyl)-7-(1-methylcyclopropyl)-7H-pyrrolo[2,3-d]pyrimidine-5-carboxamide]", "values": [{"measurement": "Remaining (%)", "result": 59, "unit": "%"}]}, {"smiles": "COCc1ccc(NC(=O)c2c(C#Cc3ccc[nH]3)n(C3(C)CC3)c3ncnc(N)c23)cc1", "note": "[Example 161, 6-((1H-pyrrol-2-yl)ethynyl)-4-amino-N-(4-(methoxymethyl)phenyl)-7-(1-methylcyclopropyl)-7H-pyrrolo[2,3-d]pyrimidine-5-carboxamide]", "values": [{"measurement": "Remaining (%)", "result": 68, "unit": "%"}]}, {"smiles": "COCc1ccc(NC(=O)c2c(C#Cc3ccc(OC)nc3)n(C3(C)CC3)c3ncnc(N)c23)cc1", "note": "[Example 192, 4-amino-N-(4-(methoxymethyl)phenyl)-6-((6-methoxypyridin-3-yl)ethynyl)-7-(1-methylcyclopropyl)-7H-pyrrolo[2,3-d]pyrimidine-5-carboxamide]", "values": [{"measurement": "Remaining (%)", "result": 79, "unit": "%"}]}, {"smiles": "COCc1ccc(NC(=O)c2c(C#Cc3ccsc3)n(C3(C)CC3)c3ncnc(N)c23)cc1", "note": "[Example 176, 4-amino-N-(4-(methoxymethyl)phenyl)-7-(1-methylcyclopropyl)-6-(thiophen-3-ylethynyl)-7H-pyrrolo[2,3-d]pyrimidine-5-carboxamide]", "values": [{"measurement": "Remaining (%)", "result": 70, "unit": "%"}]}, {"smiles": "COCc1ccc(NC(=O)c2cn(C(C)(C)C(F)F)c3ncnc(N)c23)cc1", "note": "[Example 50, 4-amino-7-(1,1-difluoro-2-methylpropan-2-yl)-N-(4-(methoxymethyl)phenyl)-7H-pyrrolo[2,3-d]pyrimidine-5-carboxamide]", "values": [{"measurement": "Remaining (%)", "result": 53, "unit": "%"}]}, {"smiles": "COCc1ccc(NC(=O)c2c(C#Cc3ccn[nH]3)n(C3(C)CC3)c3ncnc(N)c23)cc1", "note": "[Example 129, 6-((1H-pyrazol-5-yl)ethynyl)-4-amino-N-(4-(methoxymethyl)phenyl)-7-(1-methylcyclopropyl)-7H-pyrrolo[2,3-d]pyrimidine-5-carboxamide]", "values": [{"measurement": "Remaining (%)", "result": 54, "unit": "%"}]}, {"smiles": "COCc1ccc(NC(=O)c2c(C#CCN(C)C)n(C3(C)CC3)c3ncnc(N)c23)cc1", "note": "[Example 198, 4-amino-6-(3-(dimethylamino)prop-1-yn-1-yl)-N-(4-(methoxymethyl)phenyl)-7-(1-methylcyclopropyl)-7H-pyrrolo[2,3-d]pyrimidine-5-carboxamide]", "values": [{"measurement": "Remaining (%)", "result": 57, "unit": "%"}]}, {"smiles": "COCc1ccc(NC(=O)c2c(C#Cc3cncc(F)c3)n(C3(C)CC3)c3ncnc(N)c23)cc1", "note": "[Example 175, 4-amino-6-((5-fluoropyridin-3-yl)ethynyl)-N-(4-(methoxymethyl)phenyl)-7-(1-methylcyclopropyl)-7H-pyrrolo[2,3-d]pyrimidine-5-carboxamide]", "values": [{"measurement": "Remaining (%)", "result": 66, "unit": "%"}]}, {"smiles": "COCc1ccc(NC(=O)c2c(C#CCC3(O)CCOCC3)n(C3(C)CC3)c3ncnc(N)c23)cc1", "note": "[Example 143, 4-amino-6-(3-(4-hydroxytetrahydro-2H-pyran-4-yl)prop-1-yn-1-yl)-N-(4-(methoxymethyl)phenyl)-7-(1-methylcyclopropyl)-7H-pyrrolo[2,3-d]pyrimidine-5-carboxamide]", "values": [{"measurement": "Remaining (%)", "result": 68, "unit": "%"}]}, {"smiles": "COCc1ccc(NC(=O)c2cn(C3(C4CC4)CC3)c3ncnc(N)c23)cc1", "note": "[Example 49, 7-{[1,1-bi(cyclopropane)]-1-yl}-4-amino-N-(4-(methoxymethyl)phenyl)-7H-pyrrolo[2,3-d]pyrimidine-5-carboxamide]", "values": [{"measurement": "Remaining (%)", "result": 67, "unit": "%"}]}, {"smiles": "COCc1ccc(NC(=O)c2c(C#Cc3cnn(C)c3)n(C3(C)CC3)c3ncnc(N)c23)cc1", "note": "[Example 90, 4-amino-N-[4-(methoxymethyl)phenyl]-6-((1-methyl-1H-pyrazol-4-yl)ethynyl)-7-(1-methylcyclopropyl)-7H-pyrrolo[2,3-d]pyrimidine-5-carboxamide]", "values": [{"measurement": "Remaining (%)", "result": 67, "unit": "%"}]}]}
